Experimental data: PubChem BioAssay (NCI)
“And” between values parts separate entries of the source, which are not always exact repeats. Identical values can stand only once.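 Grown in 96-well plates, cells were treated for 48 hours with each compound at five concentrations. Insufficient inhibition: endpoint recorded as highest concentration tested. At the GI50, growth is halved. The concentration for full growth arrest is given as TGI.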

How the values were obtained:
Experiment in all cases: NCI tumour cell line growth inhibition, 48 h
[1] = test system: HCT-116 colon
[2] = test system: HS 578T breast
[3] = test system: HT29 colon
[4] = test system: K-562 leukemia
[5] = test system: NCI-H460 lung
[6] = test system: OVCAR-8 ovarian
[7] = test system: RPMI-8226 leukemia
[8] = test system: RXF 393 renal
[9] = test system: SF-268 CNS
[10] = test system: SNB-19 CNS

| Structure (SMILES) | GI50 [1] [µM] | TGI [1] | GI50 [2] [µM] | TGI [2] | GI50 [3] [µM] | TGI [3] [µM] | GI50 [4] [µM] | TGI [4] [µM] | GI50 [5] [µM] | TGI [5] | GI50 [6] [µM] | TGI [6] [µM] | GI50 [7] [µM] | TGI [7] [µM] | GI50 [8] [µM] | TGI [8] | GI50 [9] [µM] | TGI [9] | GI50 [10] [µM] | TGI [10] |
| --- | --- | --- | --- | --- | --- | --- | --- | --- | --- | --- | --- | --- | --- | --- | --- | --- | --- | --- | --- | --- |
| CC[Si](CC)(CC)OC1[C@@H](O[Si](CC)(CC)CC)[C@@H](CNC(=O)NC)O[C@H]1n1cnc2c(NC(=O)Nc3ccccc3)ncnc21 (stereo partly drawn) | 3.26 | 15.2 µM | 2.66 | 39.5 µM | 2.4 | 6.13 | 3.49 | > 100 | 2.48 | 6.61 µM | 3.89 | > 100 | 2.13 | 5.33 | 2.36 | 4.67 µM | 4.67 | > 100 µM | 5.28 | > 100 µM |
| C[C@@H](Oc1cc(-c2cnn(C3CCNCC3)c2)cnc1N)c1c(Cl)cc(F)cc1Cl | 1.12 | 5.16 µM | 2.41 | 10.1 µM | 1.11 | 3.56 | 0.229 | 3.88 | 0.902 | 5.4 µM | 3.83 | 16.3 | 2.41 | 8.6 | 1.5 | 3.09 µM | 3.05 | 12.1 µM | 3.46 | 14.3 µM |
| COc1cc(/C=C/c2ccnc3ccccc23)cc(OC)c1OC | 2.88 | 12.1 µM and 18.5 µM | 1.74 | 20.9 µM and 7.18 µM | 1.72 | – | 0.746 | > 100 | 2.94 | 15.8 µM and 15 µM | 4.17 | > 100 | 6.55 | – | 1.97 | 15.3 µM and 8.02 µM | – | 19.8 µM and 47.6 µM | 6.71 | 42.1 µM and > 100 µM |
| O=C(Nc1ccc(Cl)cc1)N1CCN(c2ccc3nncn3n2)CC1 | 64 | > 100 µM | > 100 | > 100 µM | 60.7 | > 100 | 22 | > 100 | 50.4 | > 100 µM | 69.7 | > 100 | 29.7 | > 100 | > 100 | > 100 µM | > 100 | > 100 µM | > 100 | > 100 µM |
| C=C1C(=O)O[C@H]2[C@H]1CC/C(COC(=O)N[C@H](Cc1c[nH]c3ccccc13)C(=O)OC)=C\CC[C@@]1(C)O[C@@H]21 | 1.16 | 2.59 µM | 12.6 | 44.2 µM | 2.46 | 7.92 | 1.72 | 8.29 | 5.79 | 21.2 µM | 2.8 | 9.13 | 2.02 | 5.83 | 1.28 | 2.66 µM | 5.17 | 19.8 µM | 8.75 | 22.6 µM |
| CC(=O)c1ccc(Oc2c3ccccc3nc3occc23)cc1 | 7.35 | > 100 µM | 12.4 | 75.5 µM | 7.13 | > 100 | 2.93 | > 100 | 23.3 | > 100 µM | 3.33 | > 100 | 4.63 | > 100 | 6.26 | 56.7 µM | 7.02 | > 100 µM | 7.98 | > 100 µM |
| c1ccc(/C(=N\Nc2nc3ccccc3s2)c2ccccn2)cc1 | – | 9.16 µM | – | > 88.9 µM | – | 47.1 | – | > 44.1 | – | 12.8 µM | – | > 100 | – | 27.9 | – | 23.3 µM | – | > 50.4 µM | – | > 100 µM |
| OCC1OC(n2cnc3c(NCc4ccccc4O)ncnc32)C(O)C1O (stereo not drawn) | 0.131 | 3.4 µM | 1.96 | > 58.6 µM | 2.23 | 52.9 | 0.634 | > 100 | 8.57 | 46.3 µM | 0.225 | 8.09 | 5.11 | > 63.6 | 4.62 | > 100 µM | 0.616 | > 100 µM | 1.39 | > 100 µM |
| O=C(COc1cccc(/C=C2\Oc3ccc4ccccc4c3C2=O)c1)c1ccc([N+](=O)[O-])cc1 | 16.5 | 40.9 µM | 18.2 | 56.1 µM | 36 | > 100 | 12.4 | 39.4 | 37 | > 100 µM | 14.2 | 37.2 | 1.12 | 13.3 | 10.6 | 25.2 µM | 13.3 | 27.2 µM | 34.1 | > 100 µM |
| Nc1nc(N)c(-c2ccc(Cl)c(Cl)c2)c(CP(Cl)(Cl)(Cl)Br)n1 | 3.52 | > 100 µM | 24.4 | > 100 µM | 6.14 | > 100 | 2.79 | > 100 | 1.58 | > 100 µM | 6.51 | > 100 | 17.3 | > 100 | 18.1 | > 100 µM | 7.05 | > 100 µM | 31.9 | > 100 µM |
| O=C(CCl)Nc1ccc(Cc2ccc(NC(=O)CCl)cc2)cc1 | 0.44 | 1.03 µM | 5.37 | > 100 µM | 1.73 | 4.47 | 1.67 | > 100 | 2.09 | 4.75 µM | 3.17 | > 100 | 1.67 | 4.78 | 1.43 | 3.07 µM | 1.83 | 9.56 µM | 1.8 | 5.14 µM |
| COc1cccc(-c2nn(-c3ccccc3)cc2-c2ccnc(NCCCNS(=O)(=O)c3ccc(C(F)(F)F)cc3)c2)c1 | 4.18 | > 100 µM | 5.41 | > 100 µM | 3.21 | – | 3.06 | > 100 | 6 | > 100 µM | 7.13 | > 100 | 3.63 | > 100 | 3.01 | > 100 µM | 6.88 | > 100 µM | – | – |
| CCSCCCC(=O)O | – | > 100 µM | – | > 100 µM | – | > 100 | – | > 100 | – | – | – | > 100 | – | > 100 | – | > 100 µM | – | > 100 µM | – | > 100 µM |
